Reference: patent US5916906A, “Compositions comprising nicotinylalanine and an inhibitor of glycine conjugation or vitamin B6” (priority 1997, dated 1999)

Key:
[1] = Plasma nicotinamide, NAL and NAL-X levels by HPLC after i.p. nicotinylalanine with or without ASA in uninfected mice; assay type: in vivo, C57BL/6 mice; conditions: ASA at 20 and 100 mg/kg added to NAL
Protocol: The concentration of nicotinamide and its major metabolites were determined by comparison of peak area ratios of the unknown versus internal standard (6-methylnicotinamide, Sigma Chemical Company) to the standard curves run in control mouse blood plasma.
Mice were treated with racemic nicotinylalanine alone (400 mg/kg) or in combination with acetyl salicylic acid (ASA) at a dose of either 20 mg/kg or 100 mg/kg body weight. […] Control mice received the vehicle for the drug compositions, being phosphate buffered saline (PBS), at the same volume on the same dose schedule as the drug-treated mice. Chronic dosing was performed daily for two weeks, Monday through Friday, and one group of mice received only a single (acute) dose of nicotinylalanine. All mice were killed two hours after their final dose and blood was collected by cardiac puncture and stored on ice, until centrifugation in a microfuge at 10,000 rpm to obtain plasma.
Concentrations of nicotinamide, nicotinamide-oxide, 1-methyl-nicotinamide, and nicotinylalanine extracted from 90% methanol, dried under N2, and reconstituted in water as above were determined by comparison of the peak area ratios of the unknown vs. the internal standard to the standard curve. Concentrations of the unidentified nicotinylalanine metabolite (NAL-X) were determined in the same way as above, except peaks were compared to the standard curve for known nicotinylalanine. The results are expressed as nanomoles of nicotinamide and nicotinylalanine per ml of plasma (nmol/ml).

[2] = humans (Levy 1965); cited from earlier work
HIV-1 infected cells = conditions: cultures of HIV-1 infected cells (Yamagoe 1991); cited from earlier work
[3] = system: poly (ADP-ribose) synthetase; conditions: crude or partially purified enzyme (Banasik 1992); cited from earlier work
[4] = human, in vivo; cited from earlier work
[5] = rodents (Shibata 1989); cited from earlier work
kynureninase = conditions: co-factor for kynureninase (Takeuchi and Shibata 1984); cited from earlier work

CC(=O)Oc1ccccc1C(=O)O [ASA, acetylsalicylic acid, reference compound]
Effect of added ASA on NAL-dependent nicotinamide plasma levels [1]: increases the NAL-dependent nicotinamide plasma levels in a dose-related manner
Fraction conjugated to form salicyluric acid [2]: up to 75%

NC(=O)c1ccccc1 [benzamide]
Antiviral activity (in words) (HIV-1 infected cells): significant antiviral activity

NC(=O)c1cccnc1 [nicotinamide]
Inhibition of poly (ADP-ribose) synthetase (in words) [3]: effective inhibitors of poly (ADP-ribose) synthetase
Side effects [4]: without any significant side effects
Antiviral activity (in words) (HIV-1 infected cells): significant antiviral activity
Fraction converted to nicotinuric acid [5]: approximately 16%

Cc1ncc(COP(=O)(O)O)c(C=O)c1O [pyridoxal phosphate]
Rate of conversion of nicotinylalanine to nicotinamide (in words) (kynureninase): increases the rate of conversion of nicotinylalanine to nicotinamide
